Legend:
Assay type in all cases: cell-based
rat P2X7 = rat P2X7 (Rattus norvegicus (Rat), UniProt Q64663); test: Ca2+ flux (FLIPR) in 1321N1 cells expressing recombinant rat P2X7;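 note: Calcium-4 dye fluorescence change read 180 s after agonist addition, with cells preincubated 30 min with compound and dye in 96-well plates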
human P2X7 [1] = target: T1, human P2X7 (Homo sapiens (Human), UniProt Q99572); test: P2X7 antagonism in human PBMCs (IL-1β release after LPS + Bz-ATP, ELISA); conditions: human PBMCs; for PBMC 1 μM (% control): test compound 1 μM
Protocol: P2X7 Antagonism in Human Peripheral Blood Mononuclear Cells (PBMCs) and Human Whole Blood.
Human blood was collected using a blood donor program. PBMCs were isolated from blood using a Ficoll density gradient technique. Briefly, blood was laid on Ficoll solution and centrifuged at RT for 20 minutes at 2000 rpm. The buffy layer (between red blood cells and plasma) was carefully collected by aspiration, washed with PBS and centrifuged again at 1500 rpm for 15 minutes. The resulting cell pellet was washed and plated on 96 well-plates for experiments. For the Human Whole Blood experiments, 150 μl of human blood was platted on 96 well-plates. Lipopolysaccharide (LPS) (30 ng/ml) was added to each well and incubated for 1 hour. Test compounds were then added and incubated for 30 minutes. The P2X7 agonist, 2′(3′)-O-(4-benzoylbenzoyl) adenosine 5′ triphosphate (Bz-ATP) was then added at a final concentration of 0.5 mM (PBMC) or 1 mM (blood). Cells were incubated for an additional 1.5 hours. At that point, supernatant was collected and stored for IL-1β assay using manufacturer's protocol for enzyme-linked immunosorbent assay (ELISA). Data was expressed as percent control, where control is defined as the difference in IL-1β release in LPS+Bz-ATP samples and LPS only samples. Data was plotted as response (% control) versus concentration to generate IC50 values. […] Data are analyzed and graphed on Graphpad Prism 5. For analysis, each concentration point is averaged from triplicate values and the averaged values are plotted on Graphpad Prism.

human P2X7 [2] = target: T1, human P2X7; test: Ca2+ flux (FLIPR) in 1321N1 cells expressing recombinant human P2X7;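 note: cells loaded with Calcium-4 dye, preincubated with test compound for 30 min, fluorescence change read 180 s after agonist addition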
Protocol: P2X7 Antagonism in Recombinant Human P2X7 Cells or Recombinant Rat P2X7 Cells: (a) Ca^2+ Flux and (b) Radioligand Binding
1321N1 cells expressing the recombinant human or rat P2X7 channel was cultured in HyQ DME/(HyClone/Dulbecco's Modified Eagle Medium) high glucose supplemented with 10% Fetal Bovine Serum (FBS) and appropriate selection marker. Cells were seeded at a density of 25000 cells/well (96-well clear bottom black walled plates) in 100 μl volume/well. On the day of the experiment, cell plates were washed with assay buffer, containing (in mM): 130 NaCl, 2 KCl, 1 CaCl2, 1 MgCl2, 10 HEPES, 5 glucose; pH 7.40 and 300 mOs. After the wash, cells were loaded with the Calcium-4 dye (Molecular Device) and incubated in the dark for 60 minutes. Test compounds were prepared at 250× the test concentration in neat DMSO. Intermediate 96-well compound plates were prepared by transferring 1.2 μL of the compound into 300 μL of assay buffer. A further 3× dilution occurred when transferring 50 μL/well of the compound plate to 100 μL/well in the cell plate. Cells were incubated with test compounds and dye for 30 minutes. […] The fluorescence change was measured 180 seconds after adding the agonist.

[3] = 1321N1 cells, recombinant rat P2X7, 250 μM BzATP
[4] = 1321N1 cells, recombinant human P2X7, 250 μM BzATP
[5] = Ca2+ flux, 250 μM BzATP, rat P2X7 1321N1 cells
[6] = 10 μM test compound, LPS + Bz-ATP
[7] = Ca2+ flux, 250 μM BzATP, human P2X7 1321N1 cells

T1 sequence (Q99572 whole entry): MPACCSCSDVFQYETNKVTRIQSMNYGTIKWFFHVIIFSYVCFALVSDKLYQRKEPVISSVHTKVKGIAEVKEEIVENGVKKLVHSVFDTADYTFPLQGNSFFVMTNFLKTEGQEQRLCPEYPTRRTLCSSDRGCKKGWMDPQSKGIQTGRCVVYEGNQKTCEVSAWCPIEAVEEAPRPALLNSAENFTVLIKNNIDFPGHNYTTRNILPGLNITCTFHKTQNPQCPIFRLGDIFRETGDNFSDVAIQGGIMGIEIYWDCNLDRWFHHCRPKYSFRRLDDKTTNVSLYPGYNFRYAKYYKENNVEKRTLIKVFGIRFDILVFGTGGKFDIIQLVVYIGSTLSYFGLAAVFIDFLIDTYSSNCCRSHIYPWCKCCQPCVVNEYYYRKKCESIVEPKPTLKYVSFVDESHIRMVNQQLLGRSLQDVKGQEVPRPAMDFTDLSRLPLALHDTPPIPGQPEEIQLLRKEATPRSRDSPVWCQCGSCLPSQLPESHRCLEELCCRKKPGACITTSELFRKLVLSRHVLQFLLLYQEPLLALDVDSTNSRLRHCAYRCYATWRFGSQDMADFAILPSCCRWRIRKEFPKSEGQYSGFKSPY
rat P2X7, sequence (Q64663 whole entry): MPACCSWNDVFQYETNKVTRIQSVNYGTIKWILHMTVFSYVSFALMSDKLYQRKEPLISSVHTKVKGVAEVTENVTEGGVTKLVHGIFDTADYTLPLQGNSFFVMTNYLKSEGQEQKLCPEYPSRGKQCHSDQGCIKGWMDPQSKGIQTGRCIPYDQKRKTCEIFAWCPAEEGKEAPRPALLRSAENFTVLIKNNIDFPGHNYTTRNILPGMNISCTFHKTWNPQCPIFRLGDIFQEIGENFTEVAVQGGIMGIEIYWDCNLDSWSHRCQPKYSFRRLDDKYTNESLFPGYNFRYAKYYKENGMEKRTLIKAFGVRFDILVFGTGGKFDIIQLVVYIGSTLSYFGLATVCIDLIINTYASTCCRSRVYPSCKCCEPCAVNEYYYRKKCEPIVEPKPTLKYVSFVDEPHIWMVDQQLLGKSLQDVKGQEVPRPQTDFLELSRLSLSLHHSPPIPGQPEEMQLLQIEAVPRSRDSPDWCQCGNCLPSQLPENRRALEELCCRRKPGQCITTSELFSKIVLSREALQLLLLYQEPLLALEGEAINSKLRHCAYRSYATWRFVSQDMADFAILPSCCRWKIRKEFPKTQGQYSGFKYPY

Row | SMILES | IC50 (rat P2X7; [3]) [µM] | PBMC 10 μM (% control) (human P2X7 [1]; test compound 10 μM) | IC50 (human P2X7 [2]; [4]) [µM] | IC50 (rat P2X7; [5]) [µM] | PBMC 10 μM (% control) (human P2X7 [1]; [6]) | IC50 (human P2X7 [2]; [7]) [µM] | PBMC 1 μM (% control) (human P2X7 [1])
1 | Cc1c(C(=O)N2Cc3nnn(-c4ccn[nH]4)c3C[C@@H]2C)cccc1C(F)(F)F (single isomer, unassigned) [Example 347, (S*)-(6-methyl-1-(1H-pyrazol-3-yl)-6,7-dihydro-1H-[1,2,3]triazolo[4,5-c]pyridin-5(4H)-yl)(2-methyl-3-(trifluoromethyl)phenyl)methanone] | 0.324 | 2.0 | 1.2 |  |  |  | 
2 | Cc1cc(-n2nnc3c2CCN(C(=O)c2cc(Cl)cc(C(F)(F)F)c2)[C@@H]3C)ncc1F (single isomer, unassigned) [Example 362, (R*)-(3-chloro-5-(trifluoromethyl)phenyl)(1-(5-fluoro-4-methylpyridin-2-yl)-4-methyl-6,7-dihydro-1H-[1,2,3]triazolo[4,5-c]pyridin-5(4H)-yl)methanone] | > 10 | 90.2 | > 10 |  |  |  | 
3 | Cc1cc(-n2nnc3c2CCN(C(=O)c2cc(Cl)cc(C(F)(F)F)c2)[C@H]3C)ncc1F (single isomer, unassigned) [Example 363, (S*)-(3-chloro-5-(trifluoromethyl)phenyl)(1-(5-fluoro-4-methylpyridin-2-yl)-4-methyl-6,7-dihydro-1H-[1,2,3]triazolo[4,5-c]pyridin-5(4H)-yl)methanone] | > 10 | 63.9 | > 10 |  |  |  | 
4 | Cc1cc(-n2nnc3c2CCN(C(=O)c2ccnc(C(F)(F)F)c2Cl)[C@H]3C)ncc1F (single isomer, unassigned) [Example 372, (S*)-(3-chloro-2-(trifluoromethyl)pyridin-4-yl)(1-(5-fluoro-4-methylpyridin-2-yl)-4-methyl-6,7-dihydro-1H-[1,2,3]triazolo[4,5-c]pyridin-5(4H)-yl)methanone] | 8.73 | 1.3 | 1.63 |  |  |  | 
5 | C[C@H]1Cc2c(nnn2-c2cc[nH]n2)CN1C(=O)c1ccnc(C(F)(F)F)c1Cl (single isomer, unassigned) [Example 422, (S*)-(3-chloro-2-(trifluoromethyl)pyridin-4-yl)(6-methyl-1-(1H-pyrazol-3-yl)-6,7-dihydro-1H-[1,2,3]triazolo[4,5-c]pyridin-5(4H)-yl)methanone] |  |  |  | 0.0031 | −9.6 | 0.0144 | 
6 | C[C@H]1Cc2c(nnn2-c2cc[nH]n2)CN1C(=O)c1ccnc(C(F)(F)F)c1F (single isomer, unassigned) [Example 424, (S*)-(3-fluoro-2-(trifluoromethyl)pyridin-4-yl)(6-methyl-1-(1H-pyrazol-3-yl)-6,7-dihydro-1H-[1,2,3]triazolo[4,5-c]pyridin-5(4H)-yl)methanone] |  |  |  | 0.0046 | −11.2 | 0.014 | 
7 | O=C(c1cccc(C(F)(F)F)c1Cl)N1CCc2c(ncn2-c2ccccc2)C1 [Example 2, (2-Chloro-3-(trifluoromethyl)phenyl)(1-phenyl-6,7-dihydro-1H-imidazo[4,5-c]pyridin-5(4H)-yl)methanone] | 2.91 |  | 0.0121 |  |  |  | 7.9
8 | CCC1c2ncn(-c3cnccn3)c2CCN1C(=O)c1cccc(C(F)(F)F)c1Cl (stereo not shown) [Example 15, (2-Chloro-3-(trifluoromethyl)phenyl)(4-ethyl-1-(pyrazin-2-yl)-6,7-dihydro-1H-imidazo[4,5-c]pyridin-5(4H)-yl)methanone] |  |  | 0.0814 |  |  |  | 9.1
9 | CC(C)C1c2ncn(-c3cnccn3)c2CCN1C(=O)c1cccc(C(F)(F)F)c1Cl (stereo not shown) [Example 16, (2-Chloro-3-(trifluoromethyl)phenyl)(4-isopropyl-1-(pyrazin-2-yl)-6,7-dihydro-1H-imidazo[4,5-c]pyridin-5(4H)-yl)methanone] | 0.257 |  | 0.0937 |  |  |  | 8.5
10 | CC1c2ncn(-c3ncccc3F)c2CCN1C(=O)c1cccc(C(F)(F)F)c1Cl (stereo not shown) [Example 21, (2-Chloro-3-(trifluoromethyl)phenyl)(1-(3-fluoropyridin-2-yl)-4-methyl-6,7-dihydro-1H-imidazo[4,5-c]pyridin-5(4H)-yl)methanone] |  | 1.6 | 0.09 |  |  |  | 
11 | CCOC(=O)C1c2ncn(-c3ccccn3)c2CCN1C(=O)c1cccc(C(F)(F)F)c1Cl (stereo not shown) [Example 24, Ethyl 5-(2-chloro-3-(trifluoromethyl)benzoyl)-1-(pyridin-2-yl)-4,5,6,7-tetrahydro-1H-imidazo[4,5-c]pyridine-4-carboxylate] | 0.0262 |  | 0.0233 |  |  |  | 2.9
12 | CCOC(=O)C1c2ncn(-c3ccccn3)c2CCN1C(=O)c1cccc(Cl)c1Cl (stereo not shown) [Example 25, Ethyl 5-(2,3-dichlorobenzoyl)-1-(pyridin-2-yl)-4,5,6,7-tetrahydro-1H-imidazo[4,5-c]pyridine-4-carboxylate] |  |  | 0.142 |  |  |  | 9.7
13 | CCOC(=O)C1c2ncn(-c3ccccc3)c2CCN1C(=O)c1cccc(C(F)(F)F)c1Cl (stereo not shown) [Example 26, Ethyl 5-(2-chloro-3-(trifluoromethyl)benzoyl)-1-phenyl-4,5,6,7-tetrahydro-1H-imidazo[4,5-c]pyridine-4-carboxylate] | 0.0549 |  | 0.0077 |  |  |  | 14.0
14 | CCOC(=O)C1c2ncn(-c3cnccn3)c2CCN1C(=O)c1cccc(C(F)(F)F)c1Cl (stereo not shown) [Example 28, Ethyl 5-{[2-chloro-3-(trifluoromethyl)phenyl]carbonyl}-1-pyrazin-2-yl-4,5,6,7-tetrahydro-1H-imidazo[4,5-c]pyridine-4-carboxylate] | 0.0362 |  | 0.0065 |  |  |  | 4.8
15 | CCOC(=O)C1c2ncn(-c3cnccn3)c2CCN1C(=O)c1cccc(Cl)c1Cl (stereo not shown) [Example 29, Ethyl 5-[(2,3-dichlorophenyl)carbonyl]-1-pyrazin-2-yl-4,5,6,7-tetrahydro-1H-imidazo[4,5-c]pyridine-4-carboxylate] | 2.5 |  | 0.062 |  |  |  | 
16 | O=C(C1c2ncn(-c3ccccn3)c2CCN1C(=O)c1cccc(C(F)(F)F)c1Cl)N1CCC1 (stereo not shown) [Example 35, 4-(Azetidin-1-ylcarbonyl)-5-{[2-chloro-3-(trifluoromethyl)phenyl]carbonyl}-1-pyridin-2-yl-4,5,6,7-tetrahydro-1H-imidazo[4,5-c]pyridine] | 0.235 |  | 0.348 |  |  |  | 
17 | O=C(c1cccc(C(F)(F)F)c1Cl)N1CCc2c(nnn2-c2ccccc2)C1 [Example 61, 5-{[2-Chloro-3-(trifluoromethyl)phenyl]carbonyl}-1-phenyl-4,5,6,7-tetrahydro-1H-[1,2,3]triazolo[4,5-c]pyridine] | 1.87 |  | 0.0027 |  |  |  | −0.1
18 | O=C(c1cccc(C(F)(F)F)c1Cl)N1CCc2c(nnn2-c2ncc(F)cn2)C1 [Example 64, 5-{[2-Chloro-3-(trifluoromethyl)phenyl]carbonyl}-1-(5-fluoropyrimidin-2-yl)-4,5,6,7-tetrahydro-1H-[1,2,3]triazolo[4,5-c]pyridine] |  | −9.2 | 0.0228 |  |  |  | 
19 | O=C(c1cccc(C(F)(F)F)c1Cl)N1CCc2c(nnn2-c2ccn[nH]2)C1 [Example 68, 5-{[2-Chloro-3-(trifluoromethyl)phenyl]carbonyl}-1-(1H-pyrazol-5-yl)-4,5,6,7-tetrahydro-1H-[1,2,3]triazolo[4,5-c]pyridine] | 0.21 |  | 0.0394 |  |  |  | 
20 | CC1c2ncn(-c3ccc(F)cn3)c2CCN1C(=O)c1ccc(F)cc1Cl (stereo not shown) [Example 256, (2-chloro-4-fluorophenyl)(1-(5-fluoropyridin-2-yl)-4-methyl-6,7-dihydro-1H-imidazo[4,5-c]pyridin-5(4H)-yl)methanone] |  | 7.1 | 4.37 |  |  |  | 
21 | CC1c2ncn(-c3ccc(F)cn3)c2CCN1C(=O)c1ccc(F)c(Cl)c1Cl (stereo not shown) [Example 261, (2,3-dichloro-4-fluorophenyl)(1-(5-fluoropyridin-2-yl)-4-methyl-6,7-dihydro-1H-imidazo[4,5-c]pyridin-5(4H)-yl)methanone] |  | −3.1 | 0.0293 |  |  |  | 
22 | Cc1c(C(=O)N2CCc3c(ncn3-c3ccc(F)cn3)C2C)cccc1C(F)(F)F (stereo not shown) [Example 263, (1-(5-fluoropyridin-2-yl)-4-methyl-6,7-dihydro-1H-imidazo[4,5-c]pyridin-5(4H)-yl)(2-methyl-3-(trifluoromethyl)phenyl)methanone] |  | −1.6 | 0.0175 |  |  |  | 
23 | Cc1c(C(=O)N2CCc3c(ncn3-c3ccc(F)cn3)C2)cccc1C(F)(F)F [Example 312, (1-(5-fluoropyridin-2-yl)-6,7-dihydro-1H-imidazo[4,5-c]pyridin-5(4H)-yl)(2-methyl-3-(trifluoromethyl)phenyl)methanone] |  | 9.5 | 0.114 |  |  |  | 
24 | O=C(c1ccc(Cl)cc1Cl)N1CCc2c(ncn2-c2ccc(F)cn2)C1 [Example 313, (2,4-dichlorophenyl)(1-(5-fluoropyridin-2-yl)-6,7-dihydro-1H-imidazo[4,5-c]pyridin-5(4H)-yl)methanone] |  | −5.4 | 0.88 |  |  |  | 
25 | Cc1ccnc(-n2nnc3c2CCN(C(=O)c2cccc(OC(F)(F)F)c2)C3C)c1 (stereo not shown) [Example 375, (4-methyl-1-(4-methylpyridin-2-yl)-6,7-dihydro-1H-[1,2,3]triazolo[4,5-c]pyridin-5(4H)-yl)(3-(trifluoromethoxy)phenyl)methanone] |  | 63.3 | > 10 |  |  |  | 
26 | Cc1cc(-n2nnc3c2CCN(C(=O)c2cccc(C(F)(F)F)c2Cl)C3C)ncn1 (stereo not shown) [Example 402, (2-chloro-3-(trifluoromethyl)phenyl)(4-methyl-1-(6-methylpyrimidin-4-yl)-6,7-dihydro-1H-[1,2,3]triazolo[4,5-c]pyridin-5(4H)-yl)methanone] |  | 0.3 | 0.879 |  |  |  | 

Source: US10112937B2, “P2X7 modulators and methods of use” (Janssen Pharmaceutica NV, priority 2013, dated 2018)
